Reference: patent publication US4163016A, “16-Substituted prostaglandins” (Hoffmann-La Roche Inc., priority 1977, dated 1979)

Assays:
[1] = test system: conscious rat with acute gastric fistula (gastric secretion); assay: Anti-secretory activity in the conscious rat with acute gastric fistula; assay type: in vivo, rat (fasted female rats); conditions: 16 μg/Kg i.v., N 3 (A), 2 (B)
Procedure: That the compounds of this invention are active as anti-secretory and anti-ulcerogenic agents can be seen by administering the following compounds: Compound A= nat 11R-methyl-16R-fluoro-15R-hydroxy-9-oxo-prost-(Z)-5-enoic acid. Compound b= nat 11R-methyl-16R-fluoro-9,15-dioxo-prost-(Z)-5-enoic acid to rats by the following test:
The compounds were tested as gastric secretory depressants in the unanesthetized rat with acute gastric fistula. […] On the day of the experiment, water infusion through the stomach was begun for a period of 60 minutes prior to drug administration. During this baseline period, the pH of the secretory flow was about 1.5 for each animal. Individual samples were collected at 10-minute intervals during this baseline period to monitor the pH. The compound dissolved in saline was administered intravenously (i.v.), 16 μg/Kg i.v., after this baseline period and samples were continuously collected for 60 minutes. The samples of gastric contents were subsequently assayed for pH, volume, total acid content (μ Eq/ml) and total acid output for 10 minutes (μ Eq/10 minutes).

[2] = test system: DOCA-Na Hypertensive Rat Model; assay: Oral activity on systolic blood pressure in the DOCA-Na hypertensive rat model; assay type: in vivo, rat (Charles River male rats); conditions: N 6
Procedure: That the compounds of this invention are active as blood pressure lowering agents can be seen from the administration of nat. 11R-methyl-16R-fluoro-9,15-dioxoprosta-(Z)-5-(E)-13-dienoic acid to rats by the following test:
Charles River male rats weighing 170-210 grams are used in the present study. DOCA-Na hypertension is induced in these rats by unilateral nephrectomy followed by subcutaneous implantation of a 25 mg deoxycorticosterone acetate pellet. Animals are placed in individual cages and receive 0.9% by weight sodium chloride aqueous solution and rat chow diet ad libitum. Two weeks are allowed to elapse from the time of surgery for development of hypertension, i.e. systolic blood pressure above 150 mmHg. Systolic blood pressure is measured indirectly from the tail of unanesthetized rats (restrained in holders heated for 5-10 minutes at 37°-38° C.) using a pneumatic pulse transducer (piezoelectric crystal and occluding cuff). The transducer and occluding cuff are coupled to a two-channel recorder. Control readings are taken prior to drug and at 1, 3, 6, 24, 48 and 72 hours post administration of drug. All drugs are prepared fresh in a mixture of tris(hydroxymethyl)amino methane in 95% ethanol (5% wt/V) and orally administered to rats. The placebo that was used was the mixture tris(hydroxymethyl)amino methane in ethanol without drug.

[3] = 10 min after administration, rounded figures
[4] = 10 min after administration, rounded, 0 = no effect
[5] = 10 min after administration, rounded, 0 = no effect, or increase in the hydrogen ion concentration
[6] = 20 min after administration, rounded figures
[7] = 20 min after administration, rounded, 0 = no effect
[8] = 30 min after administration, rounded figures
[9] = 40 min after administration, rounded figures
[10] = 50 min after administration, rounded figures
[11] = 60 min after administration, rounded figures
[12] = 60 min after administration, rounded, 0 = no effect

SMILES	Acid Output, % Inhibition (calculated from μ Eq/10 min period of total acid output) [1, 3]	pH, % Increment over baseline [1, 3]	Volume, % Inhibition [1, 4]	Acid Conc., % Inhibition (calculated from μ Eq/ml of total acid concentration) [1, 5]	Acid Conc., % Inhibition (calculated from μ Eq/ml of total acid concentration) [1, 6]	Acid Output, % Inhibition (calculated from μ Eq/10 min period of total acid output) [1, 6]	pH, % Increment over baseline [1, 6]	Volume, % Inhibition [1, 7]	Acid Conc., % Inhibition (calculated from μ Eq/ml of total acid concentration) [1, 8]	Acid Output, % Inhibition (calculated from μ Eq/10 min period of total acid output) [1, 8]	Volume, % Inhibition [1, 8]	pH, % Increment over baseline [1, 8]	Acid Conc., % Inhibition (calculated from μ Eq/ml of total acid concentration) [1, 9]	Acid Output, % Inhibition (calculated from μ Eq/10 min period of total acid output) [1, 9]	Volume, % Inhibition [1, 9]	pH, % Increment over baseline [1, 9]	Acid Conc., % Inhibition (calculated from μ Eq/ml of total acid concentration) [1, 10]	Acid Output, % Inhibition (calculated from μ Eq/10 min period of total acid output) [1, 10]	Volume, % Inhibition [1, 10]	pH, % Increment over baseline [1, 10]	further results
CCCC[C@@H](F)C(=O)CC[C@H]1[C@H](C)CC(=O)[C@@H]1C/C=C\CCCC(=O)O [Compound B, nat 11R-methyl-16R-fluoro-9,15-dioxo-prost-(Z)-5-enoic acid]	40%	2%	9%	33%	6%	22%	2%	30%	11%	15%	4%	2%	2%	14%	11%	2%	15%	20%	16%	2%	Acid Conc., % Inhibition (calculated from μ Eq/ml of total acid concentration) [1, 11]: 19%; Acid Output, % Inhibition (calculated from μ Eq/10 min period of total acid output) [1, 11]: 48%; pH, % Increment over baseline [1, 11]: 5%; Volume, % Inhibition [1, 12]: 35%
CCCC[C@@H](F)C(=O)/C=C/[C@H]1[C@H](C)CC(=O)[C@@H]1C/C=C\CCCC(=O)O [nat 11R-methyl-16R-fluoro-9,15-dioxoprosta-5(Z),13(E)-dienoic acid]	–	–	–	–	–	–	–	–	–	–	–	–	–	–	–	–	–	–	–	–	Systolic Blood Pressure ([2]; 1.0 mg/kg p.o., 1 h): 200±6 mmHg; Systolic Blood Pressure ([2]; 1.0 mg/kg p.o., 3 h): 205±6 mmHg; Systolic Blood Pressure ([2]; 1.0 mg/kg p.o., 6 h): 203±8 mmHg; Systolic Blood Pressure ([2]; 1.0 mg/kg p.o., 24 h): 199±6 mmHg; Systolic Blood Pressure ([2]; 1.0 mg/kg p.o., time 0 h (control reading prior to drug)): 196±6 mmHg; Systolic Blood Pressure ([2]; 5.0 mg/kg p.o., 1 h, * p<.05): 175±2 mmHg; Systolic Blood Pressure ([2]; 5.0 mg/kg p.o., 3 h, * p<.05): 167±4 mmHg; Systolic Blood Pressure ([2]; 5.0 mg/kg p.o., 6 h, * p<.05): 166±3 mmHg; Systolic Blood Pressure ([2]; 5.0 mg/kg p.o., 24 h, * p<.05): 163±4 mmHg; Systolic Blood Pressure ([2]; 5.0 mg/kg p.o., 48 h, * p<.05): 171±7 mmHg; Systolic Blood Pressure ([2]; 5.0 mg/kg p.o., 72 h): 193±6 mmHg; Systolic Blood Pressure ([2]; 5.0 mg/kg p.o., time 0 h (control reading prior to drug)): 197±3 mmHg
CCCC[C@@H](F)[C@H](O)CC[C@H]1[C@H](C)CC(=O)[C@@H]1C/C=C\CCCC(=O)O [Compound A, nat 11R-methyl-16R-fluoro-15R-hydroxy-9-oxo-prost-(Z)-5-enoic acid]	4%	5%	0%	0%	22%	17%	6%	0%	20%	33%	58%	4%	23%	26%	21%	5%	38%	43%	9%	9%	Acid Conc., % Inhibition (calculated from μ Eq/ml of total acid concentration) [1, 11]: 22%; Acid Output, % Inhibition (calculated from μ Eq/10 min period of total acid output) [1, 11]: 25%; pH, % Increment over baseline [1, 11]: 9%; Volume, % Inhibition [1, 12]: 0%
